Assay results reported in patent US8471005B2 (Cephalon, Inc., priority 2008, dated 2013).

Key:
JAK2 = molecular target: T1, JAK2 (Homo sapiens, UniProt O60674); assay: Recombinant Human JAK2 Kinase Assay (TRF); assay type: biochemical; details: JAK2 kinase inhibition, 0.2 μM ATP; read-out: JAK2 Potency
T1 construct: host or cells: baculovirus expression system
Outline: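 Baculovirus-expressed JAK2 (15 ng/ml) phosphorylated a biotinylated 15-mer peptide captured on Neutravidin-coated plates, in 20 mM HEPES pH 7.2 with 0.2 μM ATP, 1 mM MnCl2, 0.1% BSA and 2.5% DMSO. Reaction ran 20 min at room temperature; phosphopeptide was detected by time-resolved fluorescence with Eu-N1-labelled PY100 antibody.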

ALK = molecular target: T2, ALK (Homo sapiens, UniProt Q9UM73); assay: ALK Kinase Assay (ELISA/TRF, PLC-γ substrate); assay type: biochemical; details: ALK kinase inhibition, 1 μM ATP; read-out: ALK Potency
T2 construct: host or cells: baculovirus expression system
Outline: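 Read-out is time-resolved fluorescence from a Eu-N1-labeled PT66 antibody that binds phosphorylated PLC-γ, the substrate coated at 10 μg/mL in TBS. ALK at 30 ng/ml starts the reaction, which runs 15 minutes at 37° C.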

T1 sequence (O60674 whole entry): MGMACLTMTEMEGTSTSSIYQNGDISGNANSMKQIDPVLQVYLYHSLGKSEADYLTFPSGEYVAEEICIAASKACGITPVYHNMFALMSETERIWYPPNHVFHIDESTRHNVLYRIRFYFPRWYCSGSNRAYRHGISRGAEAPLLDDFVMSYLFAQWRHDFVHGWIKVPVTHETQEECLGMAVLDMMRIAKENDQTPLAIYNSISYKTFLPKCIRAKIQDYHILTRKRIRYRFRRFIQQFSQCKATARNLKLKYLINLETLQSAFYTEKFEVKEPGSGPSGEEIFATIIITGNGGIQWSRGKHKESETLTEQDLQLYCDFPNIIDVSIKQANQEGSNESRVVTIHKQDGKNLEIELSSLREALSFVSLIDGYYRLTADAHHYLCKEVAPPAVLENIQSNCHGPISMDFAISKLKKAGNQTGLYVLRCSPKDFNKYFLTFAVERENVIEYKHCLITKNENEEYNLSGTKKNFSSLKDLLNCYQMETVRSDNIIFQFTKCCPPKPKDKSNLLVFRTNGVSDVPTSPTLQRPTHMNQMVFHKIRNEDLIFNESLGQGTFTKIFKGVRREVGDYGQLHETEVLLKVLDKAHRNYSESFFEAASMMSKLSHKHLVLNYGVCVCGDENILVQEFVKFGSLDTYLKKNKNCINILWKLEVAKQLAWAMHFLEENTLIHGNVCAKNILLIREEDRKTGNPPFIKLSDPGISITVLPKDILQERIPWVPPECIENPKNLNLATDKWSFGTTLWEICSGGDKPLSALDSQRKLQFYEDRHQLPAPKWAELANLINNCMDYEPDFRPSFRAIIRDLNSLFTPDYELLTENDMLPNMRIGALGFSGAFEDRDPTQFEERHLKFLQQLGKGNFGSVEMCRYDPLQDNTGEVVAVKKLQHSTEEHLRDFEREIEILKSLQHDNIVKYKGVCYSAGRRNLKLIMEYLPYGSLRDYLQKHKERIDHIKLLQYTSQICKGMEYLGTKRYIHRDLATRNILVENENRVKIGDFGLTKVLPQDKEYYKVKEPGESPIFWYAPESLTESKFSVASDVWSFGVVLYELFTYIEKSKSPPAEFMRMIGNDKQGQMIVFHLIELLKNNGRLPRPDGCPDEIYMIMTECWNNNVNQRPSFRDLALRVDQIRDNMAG
T2 sequence (Q9UM73 19-1620): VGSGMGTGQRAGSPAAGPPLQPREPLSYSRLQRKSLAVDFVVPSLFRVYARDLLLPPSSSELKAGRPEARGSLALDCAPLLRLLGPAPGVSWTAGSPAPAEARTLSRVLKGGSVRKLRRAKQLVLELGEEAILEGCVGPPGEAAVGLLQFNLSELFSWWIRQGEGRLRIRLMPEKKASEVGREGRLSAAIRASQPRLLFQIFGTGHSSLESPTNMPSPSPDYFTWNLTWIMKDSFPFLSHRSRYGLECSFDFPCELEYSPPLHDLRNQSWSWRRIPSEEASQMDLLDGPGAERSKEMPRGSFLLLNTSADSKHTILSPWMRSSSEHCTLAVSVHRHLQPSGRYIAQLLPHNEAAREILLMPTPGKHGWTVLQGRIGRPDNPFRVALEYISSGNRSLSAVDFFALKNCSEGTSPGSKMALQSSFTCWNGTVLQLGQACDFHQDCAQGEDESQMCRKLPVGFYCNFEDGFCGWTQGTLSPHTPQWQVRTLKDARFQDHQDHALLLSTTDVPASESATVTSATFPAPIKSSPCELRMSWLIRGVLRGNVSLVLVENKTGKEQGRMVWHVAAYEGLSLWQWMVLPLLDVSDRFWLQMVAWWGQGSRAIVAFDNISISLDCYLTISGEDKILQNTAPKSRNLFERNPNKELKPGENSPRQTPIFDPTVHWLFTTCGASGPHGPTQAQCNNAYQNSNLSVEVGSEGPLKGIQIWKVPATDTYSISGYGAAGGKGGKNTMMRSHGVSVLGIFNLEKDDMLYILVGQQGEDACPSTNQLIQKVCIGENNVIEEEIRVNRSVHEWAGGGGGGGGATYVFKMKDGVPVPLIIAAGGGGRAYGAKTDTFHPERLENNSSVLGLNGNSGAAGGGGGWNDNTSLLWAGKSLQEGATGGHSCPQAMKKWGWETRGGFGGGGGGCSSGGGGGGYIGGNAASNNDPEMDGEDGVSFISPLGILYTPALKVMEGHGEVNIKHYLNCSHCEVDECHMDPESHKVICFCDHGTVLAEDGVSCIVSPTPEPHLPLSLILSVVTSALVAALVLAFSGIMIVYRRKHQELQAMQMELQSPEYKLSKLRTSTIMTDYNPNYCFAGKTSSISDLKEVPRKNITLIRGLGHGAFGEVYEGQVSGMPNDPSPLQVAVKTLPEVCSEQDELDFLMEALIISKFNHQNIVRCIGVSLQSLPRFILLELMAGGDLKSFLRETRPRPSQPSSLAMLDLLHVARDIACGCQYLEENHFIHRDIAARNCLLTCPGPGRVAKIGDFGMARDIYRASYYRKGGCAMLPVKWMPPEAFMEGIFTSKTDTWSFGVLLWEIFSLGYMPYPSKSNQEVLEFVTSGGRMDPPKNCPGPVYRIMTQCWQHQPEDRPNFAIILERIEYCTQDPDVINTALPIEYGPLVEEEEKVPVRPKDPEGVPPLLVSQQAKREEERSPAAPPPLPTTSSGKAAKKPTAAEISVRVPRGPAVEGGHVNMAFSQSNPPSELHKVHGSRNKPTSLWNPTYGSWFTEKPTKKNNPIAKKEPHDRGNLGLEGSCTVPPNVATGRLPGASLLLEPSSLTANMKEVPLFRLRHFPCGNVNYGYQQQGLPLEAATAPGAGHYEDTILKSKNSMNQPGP

SMILES | IC50 (JAK2) [µM] | IC50 (ALK) [µM]
COc1ccc(-c2ccc3cnc(Nc4ccc5c(c4)CN(CC(N)=O)C5)nn23)cn1 [Example 926, 2-{5-[7-(6-Methoxy-pyridin-3-yl)-pyrrolo[2,1-f][1,2,4]triazin-2-ylamino]-1,3-dihydro-isoindol-2-yl}-acetamide] | < 0.1 | 1 to 10
CC(C)(C)NS(=O)(=O)c1cccc(-c2ccc3cnc(Nc4ccc5c(c4)CN(CC(N)=O)C5)nn23)c1 [Example 927, 2-{5-[7-(3-tert-Butylsulfamoyl-phenyl)-pyrrolo[2,1-f][1,2,4]triazin-2-ylamino]-1,3-dihydro-isoindol-2-yl}-acetamide] | < 0.1 | 0.1 to 1
NC(=O)CN1CCC(c2ccc(Nc3ncc4ccc(-c5cccc(S(=O)(=O)N6CCCC6)c5)n4n3)cc2)CC1 [Example 928, 2-[4-(4-{7-[3-(Pyrrolidine-1-sulfonyl)-phenyl]-pyrrolo[2,1-f][1,2,4]triazin-2-ylamino}-phenyl)-piperidin-1-yl]-acetamide] | < 0.1 | 0.1 to 1
CCNS(=O)(=O)c1cccc(-c2ccc3cnc(Nc4ccc(C5CCN(CC(N)=O)CC5)cc4)nn23)c1 [Example 929, 2-(4-{4-[7-(3-Ethylsulfamoyl-phenyl)-pyrrolo[2,1f][1,2,4]triazin-2-ylamino]-phenyl}-piperidin-1-yl)-acetamide] | < 0.1 | < 0.1
NC(=O)CN1CCC(c2ccc(Nc3ncc4ccc(-c5cccc(S(=O)(=O)NC6CC6)c5)n4n3)cc2)CC1 [Example 930, 2-(4-{4-[7-(3-Cyclopropylsulfamoyl-phenyl)-pyrrolo[2,1-f][1,2,4]triazin-2-ylamino]-phenyl}-piperidin-1-yl)-acetamide] | < 0.1 | < 0.1
CN1CCc2ccc(Nc3ncc4ccc(-c5cccc(S(=O)(=O)NC(C)(C)C)c5)n4n3)cc2C1 [Example 931, N-tert-Butyl-3-[2-(2-methyl-1,2,3,4-tetrahydro-isoquinolin-7-ylamino)-pyrrolo[2,1-f][1,2,4]triazin-7-yl]-benzenesulfonamide] | < 0.1 | 0.1 to 1
CN1CCC(c2ccc(Nc3ncc4ccc(-c5cnn(CCC#N)c5)n4n3)cc2)CC1 [Example 932, 3-(4-{2-[4-(1-Methyl-piperidin-4-yl)-phenylamino]-pyrrolo[2,1-f][1,2,4]triazin-7-yl}-pyrazol-1-yl)-propionitrile] | < 0.1 | 0.1 to 1
N#CCCn1cc(-c2ccc3cnc(Nc4ccc(C5CCN(CC(N)=O)CC5)cc4)nn23)cn1 [Example 933, 2-[4-(4-{7-[1-(2-Cyano-ethyl)-1H-pyrazol-4-yl]-pyrrolo[2,1-f][1,2,4]triazin-2-ylamino}-phenyl)-piperidin-1-yl]-acetamide] | < 0.1 | 0.1 to 1
COc1ccc(-c2ccc3cnc(Nc4ccc(C5CCN(CC(N)=O)CC5)c(C)c4)nn23)cn1 [Example 934, 2-(4-{4-[7-(6-Methoxy-pyridin-3-yl)-pyrrolo[2,1-f][1,2,4]triazin-2-ylamino]-2-methyl-phenyl}-piperidin-1-yl)-acetamide] | < 0.1 | < 0.1
COc1ccccc1-c1ccc2cnc(Nc3ccc(C4CCN(CC(N)=O)CC4)c(C)c3)nn12 [Example 935, 2-(4-{4-[7-(2-Methoxy-phenyl)-pyrrolo[2,1-f][1,2,4]triazin-2-ylamino]-2-methyl-phenyl}-piperidin-1-yl)-acetamide] | < 0.1 | < 0.1
CN1Cc2ccc(Nc3ncc4ccc(-c5cccc(S(=O)(=O)NC(C)(C)C)c5)n4n3)cc2C1 [Example 936, N-tert-Butyl-3-[2-(2-methyl-2,3-dihydro-1H-isoindol-5-ylamino)-pyrrolo[2,1-f][1,2,4]triazin-7-yl]-benzenesulfonamide] | < 0.1 | 0.1 to 1
COc1ccc(-c2ccc3cnc(Nc4ccc5c(c4)CN(C)C5)nn23)cn1 [Example 937, [7-(6-Methoxy-pyridin-3-yl)-pyrrolo[2,1-f][1,2,4]triazin-2-yl]-(2-methyl-2,3-dihydro-1H-isoindol-5-yl)-amine] | < 0.1 | 1 to 10
Cc1cc(Nc2ncc3ccc(-c4cccc(S(=O)(=O)NC(C)(C)C)c4)n3n2)ccc1C1CCN(CC(N)=O)CC1 [Example 938, 2-(4-{4-[7-(3-tert-Butylsulfamoyl-phenyl)-pyrrolo[2,1-f][1,2,4]triazin-2-ylamino]-2-methyl-phenyl}-piperidin-1-yl)-acetamide] | < 0.1 | < 0.1
COc1ccc(-c2ccc3cnc(Nc4ccc(C5CCN(CC(N)=O)CC5)c(NC(C)=O)c4)nn23)cn1 [Example 939, 2-(4-{2-Acetylamino-4-[7-(6-methoxy-pyridin-3-yl)-pyrrolo[2,1-f][1,2,4]triazin-2-ylamino]-phenyl}-piperidin-1-yl)-acetamide] | < 0.1 | 0.1 to 1
Cc1cc(Nc2ncc3ccc(-c4cccc(S(=O)(=O)NC(C)(C)C)c4)n3n2)ccc1C1CCN(C)CC1 [Example 940, N-tert-Butyl-3-{2-[3-methyl-4-(1-methyl-piperidin-4-yl)-phenylamino]-pyrrolo[2,1-f][1,2,4]triazin-7-yl}-benzenesulfonamide] | < 0.1 | < 0.1
COc1ccc(-c2ccc3cnc(Nc4ccc(C5CCN(C)CC5)c(C)c4)nn23)cn1 [Example 941, [7-(6-Methoxy-pyridin-3-yl)-pyrrolo[2,1-f][1,2,4]triazin-2-yl]-[3-methyl-4-(1-methyl-piperidin-4-yl)-phenyl]-amine] | < 0.1 | < 0.1
COc1ccccc1-c1ccc2cnc(Nc3ccc(C4CCN(C)CC4)c(C)c3)nn12 [Example 942, [7-(2-Methoxy-phenyl)-pyrrolo[2,1-f][1,2,4]triazin-2-yl]-[3-methyl-4-(1-methyl-piperidin-4-yl)-phenyl]-amine] | < 0.1 | < 0.1
CN1C2CCC1CC(c1ccc(Nc3ncc4ccc(-c5cccc(S(=O)(=O)NC(C)(C)C)c5)n4n3)cc1)C2 (centres unmarked) [Example 943, N-tert-Butyl-3-{2-[4-(8-methyl-8-aza-bicyclo[3.2.1]oct-3-yl)-phenylamino]-pyrrolo[2,1-f][1,2,4]triazin-7-yl}-benzenesulfonamide] | < 0.1 | 0.1 to 1
COc1ccc(-c2ccc3cnc(Nc4ccc(C5CC6CCC(C5)N6C)cc4)nn23)cn1 (centres unmarked) [Example 944, [7-(6-Methoxy-pyridin-3-yl)-pyrrolo[2,1-f][1,2,4]triazin-2-yl]-[4-(8-methyl-8-aza-bicyclo[3.2.1]oct-3-yl)-phenyl]-amine] | < 0.1 | 0.1 to 1
COc1ccccc1-c1ccc2cnc(Nc3ccc(C4CC5CCC(C4)N5C)cc3)nn12 (centres unmarked) [Example 945, [7-(2-Methoxy-phenyl)-pyrrolo[2,1-f][1,2,4]triazin-2-yl]-[4-(8-methyl-8-azabicyclo[3.2.1]oct-3-yl)-phenyl]-amine] | < 0.1 | < 0.1
Cc1cc(Nc2ncc3ccc(-c4cccc(S(C)(=O)=O)c4)n3n2)ccc1C1CCN(C)CC1 [Example 946, [7-(3-Methanesulfonyl-phenyl)-pyrrolo[2,1-f][1,2,4]triazin-2-yl]-[3-methyl-4-(1-methyl-piperidin-4-yl)-phenyl]-amine] | < 0.1 | < 0.1
Cc1cc(Nc2ncc3ccc(-c4ccc(S(C)(=O)=O)cc4)n3n2)ccc1C1CCN(C)CC1 [Example 947, [7-(4-Methanesulfonyl-phenyl)-pyrrolo[2,1-f][1,2,4]triazin-2-yl]-[3-methyl-4-(1-methyl-piperidin-4-yl)-phenyl]-amine] | < 0.1 | < 0.1
Cc1cc(Nc2ncc3ccc(-c4cccc(S(C)(=O)=O)c4)n3n2)ccc1C1CCN(CC(N)=O)CC1 [Example 948, 2-(4-{4-[7-(3-Methanesulfonyl-phenyl)-pyrrolo[2,1-f][1,2,4]triazin-2-ylamino]-2-methyl-phenyl}-piperidin-1-yl)-acetamide] | < 0.1 | < 0.1
Cc1cc(Nc2ncc3ccc(-c4ccc(S(C)(=O)=O)cc4)n3n2)ccc1C1CCN(CC(N)=O)CC1 [Example 949, 2-(4-{4-[7-(4-Methanesulfonyl-phenyl)-pyrrolo[2,1-f][1,2,4]triazin-2-ylamino]-2-methyl-phenyl}-piperidin-1-yl)-acetamide] | < 0.1 | < 0.1
CN1CCN(c2cccc(Nc3ncc4ccc(-c5cnn(S(C)(=O)=O)c5)n4n3)c2)CC1 [Example 950, [7-(1-Methanesulfonyl-1H-pyrazol-4-yl)-pyrrolo[2,1-f][1,2,4]triazin-2-yl]-[3-(4-methyl-piperazin-1-yl)-phenyl]-amine] | < 0.1 | 0.1 to 1
CS(=O)(=O)c1cccc(-c2ccc3cnc(Nc4ccc(C5=CCN(CC(N)=O)CC5)c(C(F)(F)F)c4)nn23)c1 [Example 951, 2-(4-{4-[7-(3-Methanesulfonyl-phenyl)-pyrrolo[2,1-f][1,2,4]triazin-2-ylamino]-2-trifluoromethyl-phenyl}-3,6-dihydro-2H pyridin-1-yl) acetamide] | < 0.1 | 0.1 to 1
COc1ccccc1-c1ccc2cnc(Nc3ccc(C4=CCN(CC(N)=O)CC4)c(C(F)(F)F)c3)nn12 [Example 952, 2-(4-{4-[7-(2-Methoxy-phenyl)-pyrrolo[2,1-f][1,2,4]triazin-2-ylamino]-2-trifluoromethyl-phenyl}-3,6-dihydro-2H-pyridin-1-yl)-acetamide] | < 0.1 | 0.1 to 1
COc1ccc(-c2ccc3cnc(Nc4ccc(C5=CCN(CC(N)=O)CC5)c(C(F)(F)F)c4)nn23)cn1 [Example 953, 2-(4-{4-[7-(6-Methoxy-pyridin-3-yl)-pyrrolo[2,1-f][1,2,4]triazin-2-ylamino]-2-trifluoromethyl-phenyl}-3,6-dihydro-2H-pyridin-1-yl)-acetamide] | < 0.1 | 1 to 10
